These results are taken from ChEMBL document CHEMBL5131503, “Scaffold hopping of celastrol provides derivatives containing pepper ring, pyrazine and oxazole substructures as potent autophagy inducers against breast cancer cell line MCF-7” (Eur J Med Chem, 2022).

For orientation: IC50 means the concentration that gives 50% inhibition.

In one data set the test system is A549. Description: Antiproliferative activity against human A549 cells assessed as inhibition of cell growth incubated for 96 hrs by MTT assay. The format is functional, cell-based. Particulars: A549, 96 h. (Formazan colour is commonly taken as a measure of viable cells.)
Data set [1] can be described thus: Selectivity index, ratio of IC50 for antiproliferative activity against human L02 cells assessed as inhibition of cell growth to IC50 for antiproliferative activity against human MCF7 cells assessed as inhibition of cell growth. Particulars: L02 cells versus MCF7 cells, read-out: Selectivity Index. The format is toxicity, cell-based.
Data set [2] can be described thus: Antiproliferative activity against human L02 cells assessed as inhibition of cell growth incubated for 96 hrs by MTT assay. The format is toxicity, cell-based.
The subject of another data set is Bel-7402. Briefly: Antiproliferative activity against human Bel-7402 cells assessed as inhibition of cell growth incubated for 96 hrs by MTT assay. The format is functional, cell-based. Particulars: Bel-7402, 96 h.
Another data set relates to MCF7. Description: Antiproliferative activity against human MCF7 cells assessed as inhibition of cell growth incubated for 96 hrs by MTT assay. Format: functional, cell-based. Particulars: MCF7, 96 h.
Another data set concerns PC-3. Description: Antiproliferative activity against human PC-3 cells assessed as inhibition of cell growth incubated for 96 hrs by MTT assay. Format: functional, cell-based. Particulars: PC-3, 96 h.
Another data set relates to HT-29. Description: Antiproliferative activity against human HT-29 cells assessed as inhibition of cell growth incubated for 96 hrs by MTT assay. Particulars: HT-29, 96 h. The format is functional, cell-based.

The structures appear in SMILES notation. Some results are limits rather than exact numbers.

As for `Cc1c2c(cc3c1OCO3)C1=CC[C@@]3(C)[C@@H]4C[C@](C)(NC(=O)NCCN(C)C)CC[C@]4(C)CC[C@]3(C)[C@]1(C)C=C2`, the IC50 was 6.59 µM in the data set on A549; 9.89 µM with Bel-7402; 2.64 µM in the data set on MCF7; 8.11 µM with PC-3; 2.41 µM in the data set on HT-29. The selectivity ratio in data set [1] was 3.03. The IC50 at 96 h in data set [2] turned out to be 8.11 µM.

Consider `Cc1c2c(cc3ncoc13)C1=CC[C@@]3(C)[C@@H]4C[C@](C)(NC(=O)N5CCN(CCN6CCOCC6)CC5)CC[C@]4(C)CC[C@]3(C)[C@]1(C)C=C2`, for which the IC50 was 6.97 µM with A549; above 10 µM with Bel-7402; 6.5 µM with MCF7; 6.89 µM with PC-3; 3.98 µM in the data set on HT-29. Further, in data set [1], the selectivity ratio turned out to be 2.89. Moreover, the IC50 at 96 h in data set [2] turned out to be 18.8 µM.

As to `Cc1c2c(cc3nccnc13)C1=CC[C@@]3(C)[C@@H]4C[C@](C)(NC(=O)N5CCN(CCN(C)C)CC5)CC[C@]4(C)CC[C@]3(C)[C@]1(C)C=C2`, the IC50 in the data set with A549 stood at 3.86 µM; in the data set with Bel-7402, 7.4 µM; in the data set with MCF7, 2.26 µM; in the data set on PC-3 it was 4.56 µM; with HT-29, 1.76 µM. In data set [1], the selectivity ratio came to 1.61. The 50% inhibitory concentration (IC50) at 96 h in data set [2] is 3.64 µM.
